Values joined by “and” are separate entries in the source; they are usually repeats but may differ in a detail not shown here. Equal values may be shown once.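 Where inhibition never reached the appropriate level, the endpoint shown equals the highest concentration tested. Otherwise, values were interpolated linearly from a five-concentration, 48-hour dose response in 96-well plates. The concentration for 50% growth inhibition is given as GI50. TGI denotes the concentration required for complete inhibition of growth.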
tested on: NCI-H460 lung; experiment: growth of human tumour cells (NCI), 48 h

SMILES | TGI
CCN(CC)C(=O)Cn1c(C)cc2ccccc21 | > 100 µM
CC1(C)NC2C(=O)c3c([nH]c4ccccc34)[C@]3(C)CCC1CC23 (stereo partly drawn) | > 100 µM
COc1cc(/C=C2\C(=O)N(c3ccccc3)C(c3ccccc3)S2(=O)=O)cc(OC)c1OC (stereo not drawn) | > 100 µM
COc1ccc2ccccc2c1/C=C/C(=O)c1ccccc1 | 3.76 µM
C[C@]12CCC(=O)O[C@H]1CCCCO2 | > 100 µM
Cc1nc(-c2cc3cc([N+](=O)[O-])ccc3oc2=O)cs1 | > 100 µM
CC(C)=CCC/C(C)=C/C=C/C(C)=C/C=C/C(C)=C/C=C/C=C(C)/C=C/C=C(C)/C=C/[C@H]1C(C(C)(C)O)CC[C@]1(C)O (stereo partly drawn) | > 100 µM
O=C1C(CN2CCCCC2)CCC1CN1CCCCC1 (stereo not drawn) | > 100 µM
CC1=NNC(N)=N/C1=C\C(Sc1ccc(Cl)cc1)c1ccc([N+](=O)[O-])cc1 (stereo not drawn) | > 100 µM
c1ccc2c(c1)ccn2CCc1c[nH]c2ccccc12 | > 10 µM
CC(C)[Si](OC1=C(C(=O)N(C)c2cccc(Cl)c2)CCCC1)(C(C)C)C(C)C | 32.8 µM
Cc1ccc([N+](=O)[O-])cc1S(=O)(=O)Nc1ccc(C2=NNC(c3ccccc3)C2)cc1 (stereo not drawn) | 37.6 µM
COc1cc(C(=O)N(Cc2cccnc2)C(=S)N(Cc2cccnc2)C(=O)c2cc(OC)c(OC)c(OC)c2)cc(OC)c1OC | > 100 µM
COc1cc(CNCc2cc(OC)c(OC)c(OC)c2)cc(OC)c1OC | > 10 µM
Cc1ccc2c(c1)C(C(=O)N[C@@H]1C(=O)N3[C@@H]1SC(C)(C)[C@@H]3C(=O)O)OCCC2 (stereo partly drawn) | > 100 µM
O=C(N/N=C\c1cccc2c([N+](=O)[O-])cccc12)Nc1ccccc1 | 30.9 µM
CC(=O)OCC12C(=O)C[C@@H](C)C3(CC(c4ccoc4)OC3=O)C1CCC(OC(C)=O)C21CO1 (stereo partly drawn) | > 100 µM
CON(C)C(=O)CNC(=O)OCC1c2ccccc2-c2ccccc21 | > 100 µM

SMILES | TGI
O=C(NNC(=S)Nc1cccc(Cl)c1)c1cc(-c2ccccc2)nc2ccccc12 | 39.6 µM
CCOC(=O)C(=Cc1[nH]c2ccccc2c1-c1c[nH]c2ccccc12)C(=O)OCC | 29.8 µM
Cc1cn(C2CC(N(O)Cc3ccccc3)C(CO[Si](C)(C)C(C)(C)C)O2)c(=O)[nH]c1=O (stereo not drawn) | 33.3 µM and 32.2 µM
O=C1/C(=N/O)Cc2c(Br)ccc(Br)c21 | > 100 µM
CSc1ncnc2c1ncn2C1CC(Oc2ccc(C)cc2)C(COc2ccc(C)cc2)O1 (stereo not drawn) | > 100 µM
Cc1ccc(N=Nc2c(O)ccc3cc(S(=O)(=O)O)cc(S(=O)(=O)O)c23)cc1 | > 100 µM
COc1ccc(C2OC[C@H]3O[C@@H](OCc4ccccc4)[C@H](O)[C@@H](O)[C@@H]3O2)cc1 (stereo partly drawn) | > 100 µM
O=C(O)Cc1cccc2c(=O)c3ccccc3oc12 | > 100 µM
O=C(O)c1ccc([N+](=O)[O-])c2cc3cnccc3nc12 | > 100 µM
CCOC(=O)N/N=C(/N)c1cccc([N+](=O)[O-])c1 | > 100 µM
Cc1cc(S(=O)(=O)N=C2N(Cc3ccccc3)CCN2Cc2ccccc2)c(S)cc1Cl | > 100 µM
Oc1ccc(-c2nc(-c3cccnc3)c(-c3ccc(Cl)cc3)[nH]2)cc1 | 24 µM
CCCN1CCC(=O)N(CCC(F)(F)C(F)(F)C(F)(F)C(F)(F)C(F)(F)C(F)(F)F)C1=S | > 100 µM
CSc1ccc2c(cc1=O)[C@@H](NC(=O)c1ccc(N)cc1)CCc1cc(O)c(O)c(O)c1-2 | 29.6 µM and 49.7 µM
CN1CCC(O)(C(C)(C)C)CC1 | > 100 µM
Cn1cc(NC(=O)c2cc(NC(=O)CN=C(N)N)cn2C)cc1C(=O)NCCC(=N)N | > 100 µM
N=C(N)c1ccc(C(NC(=O)CNS(=O)(=O)c2ccc3ccccc3c2)P(=O)(Oc2ccccc2)Oc2ccccc2)cc1 (stereo not drawn) | > 100 µM
Cn1c2c(c3ccccc31)CC1c3c(c4ccccc4n3C)CC21 (stereo not drawn) | > 100 µM

tested on: SK-MEL-2 melanoma; experiment: growth of human tumour cells (NCI), 48 h

SMILES | TGI [µM] | GI50
CCN(CC)C(=O)Cn1c(C)cc2ccccc21 | > 100 | 
CC1(C)NC2C(=O)c3c([nH]c4ccccc34)[C@]3(C)CCC1CC23 (stereo partly drawn) | > 100 | 
COc1cc(/C=C2\C(=O)N(c3ccccc3)C(c3ccccc3)S2(=O)=O)cc(OC)c1OC (stereo not drawn) | > 100 | 
COc1ccc2ccccc2c1/C=C/C(=O)c1ccccc1 | 3.64 | 
C[C@]12CCC(=O)O[C@H]1CCCCO2 | > 100 | 
Cc1nc(-c2cc3cc([N+](=O)[O-])ccc3oc2=O)cs1 | > 100 | 
CC(C)=CCC/C(C)=C/C=C/C(C)=C/C=C/C(C)=C/C=C/C=C(C)/C=C/C=C(C)/C=C/[C@H]1C(C(C)(C)O)CC[C@]1(C)O (stereo partly drawn) | > 100 | 
O=C1C(CN2CCCCC2)CCC1CN1CCCCC1 (stereo not drawn) | 52.6 | 
CC1=NNC(N)=N/C1=C\C(Sc1ccc(Cl)cc1)c1ccc([N+](=O)[O-])cc1 (stereo not drawn) | > 100 | 
c1ccc2c(c1)ccn2CCc1c[nH]c2ccccc12 | > 10 | 
CC(C)[Si](OC1=C(C(=O)N(C)c2cccc(Cl)c2)CCCC1)(C(C)C)C(C)C | 33.2 | 
Cc1ccc([N+](=O)[O-])cc1S(=O)(=O)Nc1ccc(C2=NNC(c3ccccc3)C2)cc1 (stereo not drawn) | 45.4 | 
COc1cc(CNCc2cc(OC)c(OC)c(OC)c2)cc(OC)c1OC | > 10 | 
Cc1ccc2c(c1)C(C(=O)N[C@@H]1C(=O)N3[C@@H]1SC(C)(C)[C@@H]3C(=O)O)OCCC2 (stereo partly drawn) | > 100 | 
O=Cc1ccc2c(c1)CC1(Cc3ccccc3C1)C2 | 27.1 | 
O=C(N/N=C\c1cccc2c([N+](=O)[O-])cccc12)Nc1ccccc1 | 18.2 | 
CC(=O)OCC12C(=O)C[C@@H](C)C3(CC(c4ccoc4)OC3=O)C1CCC(OC(C)=O)C21CO1 (stereo partly drawn) | > 100 | 

SMILES | TGI [µM] | GI50
CON(C)C(=O)CNC(=O)OCC1c2ccccc2-c2ccccc21 | > 100 | 
O=C(NNC(=S)Nc1cccc(Cl)c1)c1cc(-c2ccccc2)nc2ccccc12 | 27.7 | 
CCOC(=O)C(=Cc1[nH]c2ccccc2c1-c1c[nH]c2ccccc12)C(=O)OCC | 29.6 | 
Cc1cn(C2CC(N(O)Cc3ccccc3)C(CO[Si](C)(C)C(C)(C)C)O2)c(=O)[nH]c1=O (stereo not drawn) | 38.3 | 
O=C1/C(=N/O)Cc2c(Br)ccc(Br)c21 | 48.4 | 
CSc1ncnc2c1ncn2C1CC(Oc2ccc(C)cc2)C(COc2ccc(C)cc2)O1 (stereo not drawn) | > 100 | 
Cc1ccc(N=Nc2c(O)ccc3cc(S(=O)(=O)O)cc(S(=O)(=O)O)c23)cc1 | > 100 | 
COc1ccc(C2OC[C@H]3O[C@@H](OCc4ccccc4)[C@H](O)[C@@H](O)[C@@H]3O2)cc1 (stereo partly drawn) | > 100 | 
O=C(O)Cc1cccc2c(=O)c3ccccc3oc12 | 56.5 | 
O=C(O)c1ccc([N+](=O)[O-])c2cc3cnccc3nc12 | 38.9 | 
CCOC(=O)N/N=C(/N)c1cccc([N+](=O)[O-])c1 | > 100 | 
Oc1ccc(-c2nc(-c3cccnc3)c(-c3ccc(Cl)cc3)[nH]2)cc1 | 32.8 | 
CSc1ccc2c(cc1=O)[C@@H](NC(=O)c1ccc(N)cc1)CCc1cc(O)c(O)c(O)c1-2 | > 100 | 30.9 µM and 11.4 µM
CN1CCC(O)(C(C)(C)C)CC1 | > 100 | 
Cn1cc(NC(=O)c2cc(NC(=O)CN=C(N)N)cn2C)cc1C(=O)NCCC(=N)N | > 100 | 
N=C(N)c1ccc(C(NC(=O)CNS(=O)(=O)c2ccc3ccccc3c2)P(=O)(Oc2ccccc2)Oc2ccccc2)cc1 (stereo not drawn) | > 100 | 

tested on: SK-MEL-5 melanoma; experiment: growth of human tumour cells (NCI), 48 h

SMILES | TGI | GI50
CCN(CC)C(=O)Cn1c(C)cc2ccccc21 | > 100 µM | 
CC1(C)NC2C(=O)c3c([nH]c4ccccc34)[C@]3(C)CCC1CC23 (stereo partly drawn) | > 100 µM | 
COc1cc(/C=C2\C(=O)N(c3ccccc3)C(c3ccccc3)S2(=O)=O)cc(OC)c1OC (stereo not drawn) | > 100 µM | 
COc1ccc2ccccc2c1/C=C/C(=O)c1ccccc1 | 16.1 µM | 
C[C@]12CCC(=O)O[C@H]1CCCCO2 | > 100 µM | 
Cc1nc(-c2cc3cc([N+](=O)[O-])ccc3oc2=O)cs1 | > 100 µM | 
CC(C)=CCC/C(C)=C/C=C/C(C)=C/C=C/C(C)=C/C=C/C=C(C)/C=C/C=C(C)/C=C/[C@H]1C(C(C)(C)O)CC[C@]1(C)O (stereo partly drawn) | 33.5 µM | 
O=C1C(CN2CCCCC2)CCC1CN1CCCCC1 (stereo not drawn) | > 69.3 µM | 
CC1=NNC(N)=N/C1=C\C(Sc1ccc(Cl)cc1)c1ccc([N+](=O)[O-])cc1 (stereo not drawn) | > 100 µM | 
c1ccc2c(c1)ccn2CCc1c[nH]c2ccccc12 | > 10 µM | 
CC(C)[Si](OC1=C(C(=O)N(C)c2cccc(Cl)c2)CCCC1)(C(C)C)C(C)C | 34.2 µM | 
Cc1ccc([N+](=O)[O-])cc1S(=O)(=O)Nc1ccc(C2=NNC(c3ccccc3)C2)cc1 (stereo not drawn) | 30.9 µM | 
COc1cc(C(=O)N(Cc2cccnc2)C(=S)N(Cc2cccnc2)C(=O)c2cc(OC)c(OC)c(OC)c2)cc(OC)c1OC | > 100 µM | 
COc1cc(CNCc2cc(OC)c(OC)c(OC)c2)cc(OC)c1OC | > 10 µM | 
Cc1ccc2c(c1)C(C(=O)N[C@@H]1C(=O)N3[C@@H]1SC(C)(C)[C@@H]3C(=O)O)OCCC2 (stereo partly drawn) | > 100 µM | 
O=Cc1ccc2c(c1)CC1(Cc3ccccc3C1)C2 | 29.4 µM | 
O=C(N/N=C\c1cccc2c([N+](=O)[O-])cccc12)Nc1ccccc1 | 33.5 µM | 
CC(=O)OCC12C(=O)C[C@@H](C)C3(CC(c4ccoc4)OC3=O)C1CCC(OC(C)=O)C21CO1 (stereo partly drawn) | > 100 µM | 
CON(C)C(=O)CNC(=O)OCC1c2ccccc2-c2ccccc21 | > 100 µM | 

SMILES | TGI | GI50
O=C(NNC(=S)Nc1cccc(Cl)c1)c1cc(-c2ccccc2)nc2ccccc12 | 33.2 µM | 
CCOC(=O)C(=Cc1[nH]c2ccccc2c1-c1c[nH]c2ccccc12)C(=O)OCC | 29.2 µM | 
Cc1cn(C2CC(N(O)Cc3ccccc3)C(CO[Si](C)(C)C(C)(C)C)O2)c(=O)[nH]c1=O (stereo not drawn) | 33.1 µM and 30.2 µM | 
O=C1/C(=N/O)Cc2c(Br)ccc(Br)c21 | > 100 µM | 
CSc1ncnc2c1ncn2C1CC(Oc2ccc(C)cc2)C(COc2ccc(C)cc2)O1 (stereo not drawn) | > 100 µM | 
Cc1ccc(N=Nc2c(O)ccc3cc(S(=O)(=O)O)cc(S(=O)(=O)O)c23)cc1 | > 100 µM | 
COc1ccc(C2OC[C@H]3O[C@@H](OCc4ccccc4)[C@H](O)[C@@H](O)[C@@H]3O2)cc1 (stereo partly drawn) | > 100 µM | 
O=C(O)Cc1cccc2c(=O)c3ccccc3oc12 | > 100 µM | 
O=C(O)c1ccc([N+](=O)[O-])c2cc3cnccc3nc12 | 38.4 µM | 
CCOC(=O)N/N=C(/N)c1cccc([N+](=O)[O-])c1 | > 100 µM | 
Cc1cc(S(=O)(=O)N=C2N(Cc3ccccc3)CCN2Cc2ccccc2)c(S)cc1Cl | > 100 µM | 
Oc1ccc(-c2nc(-c3cccnc3)c(-c3ccc(Cl)cc3)[nH]2)cc1 | 27.2 µM | 
CCCN1CCC(=O)N(CCC(F)(F)C(F)(F)C(F)(F)C(F)(F)C(F)(F)C(F)(F)F)C1=S | > 100 µM | 
CSc1ccc2c(cc1=O)[C@@H](NC(=O)c1ccc(N)cc1)CCc1cc(O)c(O)c(O)c1-2 | 45.5 µM and 28.7 µM | 21.1 µM and 6.63 µM
CN1CCC(O)(C(C)(C)C)CC1 | > 100 µM | 
Cn1cc(NC(=O)c2cc(NC(=O)CN=C(N)N)cn2C)cc1C(=O)NCCC(=N)N | > 100 µM | 
N=C(N)c1ccc(C(NC(=O)CNS(=O)(=O)c2ccc3ccccc3c2)P(=O)(Oc2ccccc2)Oc2ccccc2)cc1 (stereo not drawn) | > 100 µM | 
Cn1c2c(c3ccccc31)CC1c3c(c4ccccc4n3C)CC21 (stereo not drawn) | > 100 µM | 
